Earlier results on one substance are cited in patent US20120252695A1 (Janssen R&D Ireland, priority 2009, published 2012).

The test system of this data set is HCV. The settings on record: carriers of two copies of the advantageous IL28B variant; multi-ethnic population.

Regarding IFN-α, the “patients who cleared the virus and remained virus-free 24 weeks post-treatment” value is recorded as “approximately 80%”.
